The results in this text go back to US20210254087A1, “METHODS FOR ENHANCING GENOME ENGINEERING EFFICIENCY” (KWS SAAT SE & CO. KGaA, priority 2018, published 2021).

What all share (format): cell-based
Assay [1] deals with corn Hi II immature embryos. Description: Co-delivery of 2,4-D with mNeonGreen construct pGEP362 by microprojectile bombardment, transient transformation. The note with it: 250 ng 2,4-D, 100 μg gold particles, 16 hours after bombardment, vs no 2,4-D. The procedure: Embryo isolation and microprojectile bombardment and post-bombardment handlings were performed using the same procedure as described in Example 1.
The amounts of 2,4-D used for a bombardment with 100 μg of gold particles (approximately, 4.0-5.0×10^7 0.6 μm gold particles) are in range of 1.0 ng to 1000 ng, preferred 10 ng to 500 ng. Plasmid DNA and 2,4-D co-coating onto gold particles for bombardment were conducted as described in Example 1. 2,4-D stock solution (e.g. 1 mg/ml) is prepared in 100% DMSO.

Assay [2] has as its system corn Hi II type II callus. The description is as above. The settings on record: 125 ng, 250 ng, 500 ng 2,4-D vs 0 ng; 16 hours after bombardment. The procedure:
Type II callus culture and microprojectile bombardment and post-bombardment handlings were performed using the same procedure as described in Example 2.
The amounts of 2,4-D used for a bombardment with 100 μg of gold particles (approximately, 4.0-5.0×10^7 0.6 μm gold particles) are in range of 1.0 ng to 1000 ng, preferred 10 ng to 500 ng. Plasmid DNA and 2,4-D co-coating onto gold particles for bombardment were conducted as described in Example 6.

The subject of a further assay is leaves of corn plants. In words: Co-delivery of 2,4-D with tdTomato construct pGEP359 by microprojectile bombardment, transient transformation. The note with it: 250 ng 2,4-D, 20 hours after bombardment, vs without 2,4-D. The procedure: Corn plants have grown in greenhouse. In stage V8 microprojectile bombardment was conducted using a Bio-Rad PDS-1000/He particle gun. The bombardment conditions are: 27-28 mm/Hg vacuum, 450 or 650 psi rupture disc, 6 mm gap distance. 20 hours after bombardment, transient transformation was examined using a fluorescence microscope for the tdTomato gene expression at excitation maximum 554 nm and emission maximum 581 nm. Plasmid DNA and 2,4-D co-coating onto gold particles for bombardment were conducted as described in Example 1. 2,4-D stock solution (e.g. 25 mg/ml in DMSO).

Assay [3] has as its system corn Hi II type II calluses. In words: Co-delivery of 6-BA or zeatin with tdTomato construct pGEP359 by microprojectile bombardment, transient transformation. The note with it: 250 ng hormone, 100 μg gold particles, 16 hours after bombardment, vs no hormone. On the procedure: The amounts of 6-BA or zeatin used for a bombardment with 100 μg of gold particles (approximately, 4.0-5.0×10^7 0.6 μm gold particles) are in range of 1.0 ng to 10000 ng, preferred 10 ng to 1000 ng.

Assay [4] concerns corn Hi II immature embryos. Description: Co-delivery of TSA with tdTomato construct pLH-Pat5077399-70Subi-tDt by microprojectile bombardment, transient transformation. The procedure:
Procedure: Prepare corn immature embryo for bombardment: 8-10 days post pollination, maize ears (i.e. A188 or Hi II) with immature embryos size 0.8 to 1.8 mm were harvested. The ears were sterilized with 70% ethanol for 10-15 minutes. After a brief air-dry in a laminar hood, remove top ˜⅓ of the kernels from the ears with a shark scalpel, and pull the immature embryos out of the kernels carefully with a spatula. The fresh isolated embryos were placed onto the bombardment target area in an osmotic medium plate (see below) with scutellum-side up. Wrap the plates with parafilm and incubated them at 25° C. in dark for 4-20 hours before bombardment.
The amounts of TSA used for a bombardment with 100 μg of gold particles (approximately, 4.0-5.0×10^7 0.6 micron gold particles) are in range of 0.01 ng to 500 ng, preferred 0.1 to 50 ng. Plasmid DNA and TSA co-coating onto gold particles for bombardment: For 10 shots, 1 mg of gold particle size 0.6 micron (μm) in 50% (v/v) glycerol (100 μg gold particles per shot) in a total volume of 100 microliter (μl) was pipetted into a clear low-retention microcentrifuge tube. Sonicate for 15 seconds to suspend the gold particles. While vortex at a low speed, add the following in order to each 100 μl of gold particles: • Up to 10 μl of DNA (1.0 μg total DNA, 100 ng per shot) • 100 μl of 2.5 M CaCl2) (pre-cold on ice) • 40 μl of 0.1 M cold spermidine
Close the lid and vortex the tube for 2-30 minutes at 0-10° C., and spin down the DNA-coated gold particles. After washing in 500 μl of 100% ethanol for two times, the pellet was resuspended in 120 μl of 100% ethanol. […]
Bombardment was conducted using a Bio-Rad PDS-1000/He particle gun. […] 16-48 hours after bombardment, transient transformation was examined using a fluorescence microscope for the tdTomato gene expression at excitation maximum 554 nm and emission maximum 581 nm. […]

Assay [5] relates to corn Hi II type II calluses. In words: Co-delivery of TSA with tdTomato construct pGEP359 by microprojectile bombardment, transient transformation. The note with it: 15 ng TSA, 100 μg gold particles, 16 hours after bombardment, vs no TSA. The procedure:
Type II callus induction and selection: Hi II immature embryos size 0.8-1.8 mm were isolated as described in Example 1, and were placed onto type II callus induction medium (see below) immediately with scutellum-side up, in a density of 10-15 embryo per plate (diameter of 100 mm). Wrap the plates with parafilm, and culture the embryos in plate at 27° C. in the dark until type II callus emerged (˜2 weeks). Pick friable type II calluses under a stereoscope, and move them onto type II callus selection medium (see below). Repeat this process for 2-3 more times, and trash the embryos 4 weeks after induction. Select pre-embryo stage of type II callus under a stereoscope carefully based on: friability (highly friable), morphology (no embryo-like structure), color (fresh, white, semi-transparent). Select and subculture type II callus every 1-2 week in callus selection medium (see below) until the callus lines stabilized (about 3-5 rounds of selection). Stable type II callus lines were cultured in type II callus subculture medium (see below) every 1 to 2 weeks.
Preparation of type II callus for bombardment: Select and transfer highly friable type II callus at pre-embryo stage onto the bombardment target region in an osmotic medium plate (see Example 1) (single layer, no overlapping). […]

For assay [6], the system named is sugar beet friable calluses. Description: Co-delivery of TSA with pLH-Pat5077399-70Subi-tDt by microprojectile bombardment, transient transformation. The note with it: 15 ng TSA, 300 μg gold particles, 24 hours after bombardment, vs no TSA. The procedure:
Sugar beet callus induction: young leaves from in vitro cultured sugar beet shoots in shoot culture medium (see below) were cut into small pieces (square, size 3-5 mm) in a laminar hood, and placed them onto callus induction medium (see below), in a density of 10-15 pieces per plate (diameter of 100 mm) with adaxial-side up. Wrap the plates with parafilm, and culture the leaf segments in plate at 23° C. in the dark for 6-8 weeks until callus emerged.
Preparation of sugar beet callus for bombardment: harvest friable fresh calluses under a stereoscope, and transfer them onto the bombardment target area in a sugar beet osmatic medium (see below) (single layer, no overlapping). Wrap the plates with parafilm and incubated at 25° C. in dark for 4-20 hours before bombardment.
Microprojectile bombardment and post-bombardment handlings were conducted using the same procedure descripted in Example 1, except for the amount of gold particles used for a bombardment was 300 μg.
Sugar beet shoot culture medium: MS, 0.25 mg/L of BAP, 30 g/L of sucrose, 8 g/I plant agar, pH 6.0
Sugar beet callus induction medium: MS, 2.0 mg/L of BAP, 15 g/L of sucrose, 8 g/I plant agar, pH 6.0
Sugar beet callus osmatic medium: MS, 2.0 mg/L of BAP, 15 g/L of sucrose, 0.2 M Mannitol (36.4 g/L), 0.2 M sorbitol (36.4 g/L), 8 g/I plant agar, pH 6.0

The test system of assay [7] is corn Hi II immature embryos. Description: Co-delivery of TSA with gene editing construct pGEP284, site-specific InDel rate by NGS. On the procedure:
Embryo isolation, microprojectile bombardment and post-bombardment handlings were performed using the same procedure as described in Example 1. Two days after bombardment, the embryos were harvested and used for genomic DNA isolation use Plant DNA Isolation kit from Qiagen (Venlo, Netherlands). NGS (next generation sequencing) was conducted by Miseq platform of Illumina Inc. (San Diego, Calif., USA). InDel (insertion and deletion) rate was analyzed by means of CRISPResso (http://crispresso.rocks/).

Assay [8] concerns corn Hi II type II calluses. In words: Co-delivery of TSA with gene editing constructs pGEP359 and pGEP353, site-specific InDel rate by NGS. The settings on record: 15 ng TSA vs no TSA, 13 days after co-bombardment. On the procedure:
Type II callus culture and microprojectile bombardment and post-bombardment handlings were performed using the same procedure as described in Example 2. 2-15 days after bombardment, the calluses were harvested and used for genomic DNA isolation with a Plant DNA Isolation kit from Qiagen. NGS (next generation sequencing) was conducted by Illumina Miseq platform. InDel (insertion and deletion) rate was analyzed by means of CRISPResso.

For `O=C(O)COc1ccc(Cl)cc1Cl` [2,4-D, 2,4-Dichlorophenoxyacetic acid], the “increase in average number of green fluorescent cells per embryo” value in assay [1] was found to be 187%. In assay [2], the “increase of average number of green fluorescent cells per field” value is “at least 34.8%”. Moreover, in the assay with leaves of corn plants, the “effect on transient transformation in corn leaves” value is reported as “improved the transient transformation”.
For `c1ccc(CNc2ncnc3nc[nH]c23)cc1` [6-BA, 6-Benzylaminopurine], the “increase in average number of red fluorescent cells per field” value in assay [3] amounted to 35.8%.
For the compound `CC(/C=C/C(=O)NO)=C\[C@@H](C)C(=O)c1ccc(N(C)C)cc1` [TSA, trichostatin A], in assay [4] (15 ng TSA, 100 μg gold particles 0.6 μm, 16 hours after bombardment, vs no TSA), the “increase of average number of red fluorescent cells (positively transient transformed cells) per embryo” value was 98.2%. In addition, the “effect of lower and higher TSA amounts on transient transformed cells” value in assay [4] (15 ng and 45 ng TSA vs no TSA, 16 hours) was “significant increase of transient transformed cells”. Further, the “TSA amount giving optimum of average number of fluorescent cells per field” value in assay [4] (no TSA, 15, 30, 45 ng TSA tested, 16 hours) was “around 30 ng”. Besides, the “increase of average number of fluorescent cells per field” value in assay [5] is on record as 43.3%; in [6] it was 193.7%. The “effect of lower and higher TSA amounts on InDel rates” value in [7] (15 ng and 45 ng TSA compared to absence of TSA, 2 days) is listed as “significant increase of InDel rates”. In addition, in assay [7] (no TSA, 15, 30, 45 ng TSA tested, 2 days after bombardment, pGEP284), the “TSA amount giving optimum of rates of InDel events” value was “around 30 ng”. In addition, the “increase of site-specific InDel rate, factor” value in [8] came out at 6.75. The “increase of site-specific InDel rate, percent” value in assay [8] amounted to 575%.
`C/C(=C\CNc1ncnc2[nH]cnc12)CO` [zeatin, Zeatin]: the “increase in average number of red fluorescent cells per field” value in assay [3] was found to be 31.2%.
